According to patent US6569875B1, “Fungicide mixtures based on pyridin carboxamides and benzimidazoles or the precursors thereof” (priority 1997, dated 2003):

Each compound was assayed on Botrytis cinerea (assay: Activity against Botrytis cinerea on bell pepper leaves (sprayed green bell pepper fruit disks, protective)). Conditions: single active ingredient, 4 ppm in the spray liquor, inoculated 2 hours after spray coating dried, 18° C., 4 days, visual evaluation.
Type: in vivo
Procedure: The active ingredients, separately or together, are formulated as a 10% emulsion in a mixture of 63% by weight of cyclohexanone and 27% by eight of emulsifier, and diluted with water to the desired concentration.
Evaluation is carried out by determining the infected leaf areas in percent. These percentages are converted into efficacies. The efficacy (W) is calculated as follows using Abbot's formula: […]
α corresponds to the fungal infection of the treated plants in % and β corresponds to the fungal infection of the untreated (control) plants in % An efficacy of 0 means that the infection level of the treated plants corresponds to that of the untreated control plants; an efficacy of 100 means that the treated plants were not infected.
The expected efficacies of the mixtures of the active ingredients were determined using Colby's formula [R. S. Colby, Weeds 15, 20-22 (1967)] and compared with the observed efficacies.
Colby formula: E=x+Y−x·y/100
E expected efficacy, expressed in % of the untreated control, when using the mixture of the active ingredients A and B at the concentrations a and b x efficacy, expressed in % of the untreated control, when using active ingredient A at the concentration a y efficacy, expressed in % of the untreated control, when using active ingredient B at the concentration b Disks of green bell peppers were sprayed to runoff point with an aqueous preparation of active ingredient which had been prepared from a stock solution comprising 10% of active ingredient, 63% of cyclohexanone and 27% of emulsifier. 2 hours after the spray coating had dried on, the fruit disks were inoculated with a spore suspension of Botrytis cinerea containing 1.7×10^6 spores per ml of a 2% strength Biomalz solution. The inoculated fruit disks were subsequently incubated in humid chambers at 18° C. for 4 days. The Botyrtis infection on the diseased fruit disks was then evaluated visually.
For `O=C(Nc1ccccc1-c1ccc(F)cc1)c1cccnc1Cl` [Compound I.1], the “Efficacy in % of the untreated control” value was 0%. With `O=C(Nc1ccccc1-c1ccc(Cl)cc1)c1cccnc1Cl` [Compound I.2] the “Efficacy in % of the untreated control” value was 40%. For `CCCCNC(=O)n1c(NC(=O)OC)nc2ccccc21` [Compound II.a, methyl 1-(butylcarbamoyl)benzimidazol-2-ylcarbamate], the “Efficacy in % of the untreated control” value was 10%. For `COC(=O)NC(=S)Nc1ccccc1NC(=S)NC(=O)OC` [Compound II.f, dimethyl 4,4′-(o-phenylene)-bis(3-thioallophanate)], the “Efficacy in % of the untreated control” value was 10%.
